Results: ChEMBL document CHEMBL4483862, “Open-source discovery of chemical leads for next-generation chemoprotective antimalarials” (2018)

Tested on: Plasmodium berghei
Assay: Luciferase/luciferin-expressing antifolate-resistant parasites were used to infect a culture of HepG2 cells that were pre-incubated with compounds. Infected hepatocytes emit light due to the luciferase reaction. Assay results are presented as the percent inhibition of light emission compared to control. […]
Format: functional
Conditions: sporozoite; for IC90: read-out: LUCIFERASE INFECTION ASSAY - IC90
[1] = read-out: LUCIFERASE INFECTION ASSAY - IC50

SMILES	IC90	further results
Cn1cc(C(=O)Nc2ccc(-c3nc4ccccc4[nH]3)cc2)c(-c2ccc3c(c2)OCCCO3)n1	4.31 µM	IC50 (HEPG2TOX_HILL_SLOPE 2.56, HEPG2TOX_R_SQUARED 0.953, PBLUC_HILL_SLOPE 7.83, PBLUC_R_SQUARED 0.745, read-out: LUCIFERASE INFECTION ASSAY - IC50): 3.25 µM
Cc1cc(C)nc(-n2nc(C)cc2Nc2ccccc2)n1	> 10 µM	IC50 (PBLUC_HILL_SLOPE 12.8, PBLUC_R_SQUARED 0.114, read-out: LUCIFERASE INFECTION ASSAY - IC50): > 10 µM
CCOC(=O)C1C(C)=NC2=C(C(=O)CC(c3ccc(F)cc3)C2)C1c1ccccc1C(F)(F)F (stereo unspecified)	> 6.97 µM	IC50 (FFLUC_HILL_SLOPE 9.32, FFLUC_R_SQUARED 0.536, HEPG2TOX_HILL_SLOPE 7.97, HEPG2TOX_R_SQUARED 0.882, PBLUC_HILL_SLOPE 14, PBLUC_R_SQUARED 0.0949, read-out: LUCIFERASE INFECTION ASSAY - IC50): 6.64 µM
Cc1noc(C)c1COC(=O)CC(c1ccccc1)c1ccccc1	> 10 µM	IC50 [1]: > 10 µM
CSc1nccc(-c2ccsc2)n1	> 15.8 µM	IC50 (FFLUC_HILL_SLOPE 14.6, FFLUC_R_SQUARED 0.758, read-out: LUCIFERASE INFECTION ASSAY - IC50): > 15.8 µM
NC1=NC(=S)N=C(N)C1=C(CS(=O)(=O)c1ccccc1)c1ccccc1	> 8.58 µM	IC50 (PBLUC_HILL_SLOPE 1.77, PBLUC_R_SQUARED 0.148, read-out: LUCIFERASE INFECTION ASSAY - IC50): > 8.58 µM
Cc1cccc(C)c1N(C(=O)CCNC(=O)c1ccccc1Cl)c1nc2ccccc2s1	> 10 µM	IC50 [1]: > 10 µM
Clc1ccc(SCc2nc(N3CCN(c4ncccn4)CC3)c3c4c(sc3n2)CCC4)cc1	> 10 µM	IC50 [1]: > 10 µM
Cc1ccc(CNC(=O)c2ccc(/C=C3\SC(=O)NC3=O)cc2)cc1	> 10 µM	IC50 (PBLUC_HILL_SLOPE 1.15, PBLUC_R_SQUARED 0.802, read-out: LUCIFERASE INFECTION ASSAY - IC50): 2.5 µM
CC1(C)CN=C(N(C(=O)Nc2ccc(Cl)c(Cl)c2)c2ccccc2)S1	> 8.37 µM	IC50 [1]: > 8.37 µM
CN(C)c1ccc(Nc2nc(=O)cn[nH]2)cc1	> 14.3 µM	IC50 (PBLUC_HILL_SLOPE 0.727, PBLUC_R_SQUARED 0.391, read-out: LUCIFERASE INFECTION ASSAY - IC50): > 14.3 µM
COc1cccc(Nc2nccc3nc(-c4cccc(C(F)(F)F)c4)[nH]c23)c1	> 10 µM	IC50 (PBLUC_HILL_SLOPE 2.33, PBLUC_R_SQUARED 0.497, read-out: LUCIFERASE INFECTION ASSAY - IC50): 4.16 µM
C/C(=N\Nc1ccnc2cc(Cl)ccc12)c1ccc(-n2ccnc2)cc1	> 10 µM	IC50 (HEPG2TOX_HILL_SLOPE 8.87, HEPG2TOX_R_SQUARED 0.252, read-out: LUCIFERASE INFECTION ASSAY - IC50): > 10 µM
Cc1cc(C(=O)Cn2cnc3ccccc32)c(C)n1-c1ccccn1	> 10 µM	IC50 (PBLUC_HILL_SLOPE 9.42, PBLUC_R_SQUARED 0.321, read-out: LUCIFERASE INFECTION ASSAY - IC50): 9.29 µM
O=S(=O)(c1ccccc1NCc1ccnc(N2CCCC2)c1)C(F)(F)F	> 10 µM	IC50 (HEPG2TOX_HILL_SLOPE 1.99, HEPG2TOX_R_SQUARED 0.873, PBLUC_HILL_SLOPE 3.99, PBLUC_R_SQUARED 0.0495, read-out: LUCIFERASE INFECTION ASSAY - IC50): 6.48 µM
O=C1C=C/C(=N\Nc2ccc(F)cc2)c2cccnc21	> 10 µM	IC50 (HEPG2TOX_HILL_SLOPE 7.02, HEPG2TOX_R_SQUARED 0.243, read-out: LUCIFERASE INFECTION ASSAY - IC50): > 10 µM
COc1ccccc1N1CCN(c2ncnc3sc(C)c(-c4ccc(F)cc4)c23)CC1	> 10 µM	IC50 (HEPG2TOX_HILL_SLOPE 0.826, HEPG2TOX_R_SQUARED 0.707, read-out: LUCIFERASE INFECTION ASSAY - IC50): > 10 µM
N#C/C(=C\Nc1cccc([N+](=O)[O-])c1)S(=O)(=O)c1ccc(Cl)cc1	> 9.07 µM	IC50 [1]: > 9.07 µM
Cc1ccc(S(=O)(=O)CCC(=O)OCC(=O)NCC2CCCO2)cc1 (stereo unspecified)	> 10 µM	IC50 [1]: > 10 µM
Fc1ccc(CNc2ccc3ncc(Br)n3n2)cc1	> 10.3 µM	IC50 (FFLUC_HILL_SLOPE 12.6, FFLUC_R_SQUARED 0.212, PBLUC_HILL_SLOPE 1.62, PBLUC_R_SQUARED 0.732, read-out: LUCIFERASE INFECTION ASSAY - IC50): 5.26 µM
Cc1nn(-c2ccccc2)c(C)c1CC(=O)Nc1ccc2c(c1)OC(F)(F)O2	> 10 µM	IC50 [1]: > 10 µM
N#Cc1ncn(-c2nc(-c3ccccn3)nc3sc(-c4ccccc4)cc23)n1	7.91 µM	IC50 (HEPG2TOX_HILL_SLOPE 1.72, HEPG2TOX_R_SQUARED 0.411, PBLUC_HILL_SLOPE 3.83, PBLUC_R_SQUARED 0.832, read-out: LUCIFERASE INFECTION ASSAY - IC50): 4.46 µM

SMILES	IC90	further results
CC(C)(C)c1ccc(COc2cccnc2N=CNO)cc1	> 11 µM	IC50 (PBLUC_HILL_SLOPE 1.74, PBLUC_R_SQUARED 0.362, read-out: LUCIFERASE INFECTION ASSAY - IC50): 6.6 µM
O=C(NC1CC1)c1ccc(-c2cnc3cnc(-c4ccc(CNc5ccccc5)cc4)cn23)cc1	> 7.18 µM	IC50 (PBLUC_HILL_SLOPE 4.2, PBLUC_R_SQUARED 0.624, read-out: LUCIFERASE INFECTION ASSAY - IC50): 4.59 µM
COc1cccc(Nc2nccc3c2cc(-c2cccc(OC)c2)n3C)c1	> 10 µM	IC50 (PBLUC_HILL_SLOPE 0.902, PBLUC_R_SQUARED 0.605, read-out: LUCIFERASE INFECTION ASSAY - IC50): 2.59 µM
Cc1csc(-n2c(C)cc(C(=O)CSc3nc(N)cc(N)n3)c2C)n1	> 10 µM	IC50 (FFLUC_HILL_SLOPE 1.79, FFLUC_R_SQUARED 0.665, read-out: LUCIFERASE INFECTION ASSAY - IC50): > 10 µM
O=C(Cn1ncc(Cl)c(Cl)c1=O)N1CCN(S(=O)(=O)c2ccc3ccccc3c2)CC1	> 10 µM	IC50 (HEPG2TOX_HILL_SLOPE 11.9, 3.77, HEPG2TOX_R_SQUARED 0.663, 0.998, PBLUC_HILL_SLOPE 2.89, PBLUC_R_SQUARED 0.527, read-out: LUCIFERASE INFECTION ASSAY - IC50): 5.1 µM
O=C(Nc1ncccc1O)c1ccc(-n2ccnc2)cc1	8.71 µM	IC50 (PBLUC_HILL_SLOPE 2.04, 2.50, 2.35, PBLUC_R_SQUARED 0.554, 0.491, 0.399, read-out: LUCIFERASE INFECTION ASSAY - IC50): 3.31 µM
CCCCCCCc1ccc(C(=O)Nc2ccc(F)c(Cl)c2)cc1	> 9.49 µM	IC50 (FFLUC_HILL_SLOPE 16.3, FFLUC_R_SQUARED 0.0372, PBLUC_HILL_SLOPE 1.73, PBLUC_R_SQUARED 0.521, read-out: LUCIFERASE INFECTION ASSAY - IC50): 4.92 µM
CC(=O)N(/N=C/c1ccc(F)cc1)C1=NN(C(C)=O)C(c2ccc(F)cc2)S1 (stereo unspecified)	> 8.2 µM	IC50 (HEPG2TOX_HILL_SLOPE 7.43, HEPG2TOX_R_SQUARED 0.382, read-out: LUCIFERASE INFECTION ASSAY - IC50): > 8.2 µM
Cc1ccc[n+](CC(=O)c2ccc3c(c2)Cc2ccccc2-3)c1C	> 8.37 µM	IC50 (PBLUC_HILL_SLOPE 0.83, PBLUC_R_SQUARED 0.466, read-out: LUCIFERASE INFECTION ASSAY - IC50): > 8.37 µM
COCCNc1ccnc2c(-c3ccccc3Oc3ccccc3)cnn12	> 9.16 µM	IC50 (FFLUC_HILL_SLOPE 3.47, FFLUC_R_SQUARED 0.0365, PBLUC_HILL_SLOPE 0.975, PBLUC_R_SQUARED 0.706, read-out: LUCIFERASE INFECTION ASSAY - IC50): 3.91 µM
CN(C)CCCOc1ccc(-c2cn3c(-c4cccc(OC(F)(F)F)c4)cnc3cn2)cn1	> 7.21 µM	IC50 (PBLUC_HILL_SLOPE 15.4, PBLUC_R_SQUARED 0.0337, read-out: LUCIFERASE INFECTION ASSAY - IC50): 6.95 µM
Clc1ccc(CSc2nncn2-c2ccc3c(c2)OCCO3)cc1	3.5 µM	IC50 (HEPG2TOX_HILL_SLOPE 1.37, HEPG2TOX_R_SQUARED 0.824, PBLUC_HILL_SLOPE 1.99, PBLUC_R_SQUARED 0.536, read-out: LUCIFERASE INFECTION ASSAY - IC50): 1.16 µM
Cc1cc(C)c2c(=O)cc(C(=O)Nc3cccnc3)oc2c1	4.06 µM	IC50 (HEPG2TOX_HILL_SLOPE 1.93, HEPG2TOX_R_SQUARED 0.965, PBLUC_HILL_SLOPE 5.85, PBLUC_R_SQUARED 0.609, read-out: LUCIFERASE INFECTION ASSAY - IC50): 2.79 µM
CN(C)C(=O)CN(C)S(=O)(=O)/C=C/c1ccccc1	> 10 µM	IC50 [1]: > 10 µM
COc1cc2c(cc1OC)C(c1ccccc1C(F)(F)F)CC(=O)N2 (stereo unspecified)	> 9.39 µM	IC50 (PBLUC_HILL_SLOPE 2.57, PBLUC_R_SQUARED 0.0741, read-out: LUCIFERASE INFECTION ASSAY - IC50): 7.98 µM
Cc1cc(C)c(-c2csc(NC(=O)c3nnc(O)c4ccccc34)n2)c(C)c1	5.46 µM	IC50 [1]: 3.82 µM
Cc1n[nH]c(Nc2ccc(Oc3ccccc3)cc2)nc1=O	> 11.2 µM	IC50 [1]: > 11.2 µM
CC1(C)CC(=O)C/C(=N\Nc2nc(C(Cl)(Cl)Cl)nc3ccccc23)C1	> 10 µM	IC50 (HEPG2TOX_HILL_SLOPE 0.517, HEPG2TOX_R_SQUARED 0.271, PBLUC_HILL_SLOPE 3.75, PBLUC_R_SQUARED 0.163, read-out: LUCIFERASE INFECTION ASSAY - IC50): 9.3 µM
Cc1ccc(C(=O)CN2C(=O)C(=O)N(C)C2=O)cc1C	> 10 µM	IC50 [1]: > 10 µM
Cc1cc2ncc(-c3ccnc(SCC(=O)Nc4ccc(Cl)cc4Cl)n3)c(C)n2n1	> 7.18 µM	IC50 (PBLUC_HILL_SLOPE 0.44, PBLUC_R_SQUARED 0.0613, read-out: LUCIFERASE INFECTION ASSAY - IC50): > 7.18 µM
CN(C)c1cccc(-c2cnc3sc(NCc4ccncc4)nn23)c1	> 9.42 µM	IC50 [1]: > 9.42 µM
